Measurements as given in PMC2941613 (Indian Journal of Pharmacology, 2010).

Key:
ob/ob mice = conditions: 10 mg/kg p.o.
Experimental: The DPP-IV inhibitors were administered to overnight fasted ob/ob mice for the above stated period, followed by oral glucose challenge (2 g/kg). Blood samples collected at 0, 15, 30, 60, and 120 min after glucose load were processed as described earlier and blood glucose concentrations measured using Biochemical AutoAnalyzer, Dimension AR (Dade Behring, USA). AUC0-120 min were calculated and the percent glucose excursion was estimated at different duration of treatment compared to vehicle.

[1] = Plasma levels of active GLP-1 and insulin (unpublished observations); format: in vivo

SMILES	Glucose lowering (glucose excursion, AUC0-120 min vs vehicle) at 8 h (ob/ob mice; OGTT 2 g/kg 8 h after dosing)	Reduction in AUCGlucose at 12 h (ob/ob mice; OGTT 2 g/kg 12 h after dosing) [%]	Augmentation of plasma active GLP-1 [1]	Augmentation of plasma insulin [1]
N[C@@H](CC(=O)N1CCn2c(nnc2C(F)(F)F)C1)Cc1cc(F)c(F)cc1F [sitagliptin]	~ 35%	-23	twofold	twofold
N#C[C@@H]1CCCN1C(=O)CNC12CC3CC(CC(O)(C3)C1)C2 [vildagliptin]	–	–	twofold	twofold
